Test results reported in patent US20190160030A1, “CARBOXYLIC ACIDS FOR EARLY CHILDHOOD APPLICATION” (PROPONENT BIOTECH GMBH, priority 2016, published 2019).

Legend:
[1] = system: BALBC/J neonates sensitized and intranasally challenged with house dust mite (HDM); assay: Lung analysis after intranasal HDM challenge in the same model: BAL cell counts, PAS mucus staining; format: in vivo, mouse; details: topical 5 mg sodium propionate vs vehicle, n=5 mice per group
Method: A) Airway eosinophil counts and B) airway neutrophils counts were determined in cytospins from bronchoalveolar lavage fluid collected at 72 hours after the last intranasal challenge.
C) Mucus production in the lung was quantified as the frequency of fully periodic acid-Schiff (PAS) stained cells in representative images of small and medium airways from PAS stained paraffin embedded lung tissue sections (4 μM). n=5 mice per group.
(§1) First generation BALBC/J (Charles River) neonates were topically treated on dorsal skin with 5 mg sodium propionate (50 μl of a 100 mg/ml Sodium propionate solution; Sodium propionate (Sigma Aldrich; catalogue number P5436) was dissolved in 0.9% NaCl and sterile filtered) or vehicle control (0.9% NaCl; Laboratorium G. Bichsel AG; catalogue number 1000096) on day 4 and 6 after birth. Ten days post birth epicutaneous sensitization with 15 μg house dust mite (HDM) (Greer Laboratories Inc.; catalogue number B84) was started. […]
Mouse tracheas were canulated and bronchoalveolar lavage (BAL) was performed with 500 μl PBS 0.2% BSA solution. Total BAL cell counts were determined using a Coulter Counter, and differential cell counts were determined on cytospin preparations of the BAL fluid. […]

[2] = system: BALBC/J neonates epicutaneously sensitized with house dust mite (HDM); assay: Neonatal topical treatment in the epicutaneous HDM atopic dermatitis model: skin inflammatory score, TEWL, skin histology; format: in vivo, mouse
Method: A) Skin inflammatory scoring (0—Normal; 1—Mild inflammation, 2—Moderate inflammation; 3—Marked inflammation; 4—Severe inflammation; 5—Very severe inflammation) was performed (blinded for the experimental conditions) on 8-10 representative images of haematoxylin and eosin stained paraffin embedded skin tissue sections (4 μM).
B) Transepidermal water loss (TEWL) measurement was performed 24 hours after the end of the third epicutaneous HDM sensitization round. Three measurements were taken per mouse. n=5 mice per group.
Skin tissue from the sensitized area was fixed in formalin, embedded in paraffin and 4 μM tissue sections were stained with haematoxylin and eosin. Representative images from vehicle treated controls (left) or sodium propionate treated mice (right) are shown at a 10× magnification. Inserts are shown at a 20× magnification.
as §1, with “started. Epicutaneous sensitization was performed by application of gauze (Dermaplast; catalogue number 214 010) soaked in 15 μg HDM on the dorsal skin of the neonate, which was secured by a bioclusive dressing (Systagenix; catalogue number 2463) and covered with adhesive tape (Mölnlycke Health Care; catalogue number 310500) to prevent removal of the gauze and consequently HDM ingestion. The sensitization was performed for three consecutive weeks, each week consisting of five consecutive days of sensitization, with a change of the gauze on day 3 and removal of the gauze on day 5, followed by a 2 day recovery period.” for “started.”

[3] = system: Nickel allergen contact hypersensitivity; assay: Contact hypersensitivity to Nickel allergen, topical propionate solution, clinical score of skin lesion; format: in vivo, human; details: topical propionate solution subsequent to exposure to Nickel; worded as 'can be'
Excerpt: In this regard, human volunteers can be topically administered a propionate solution subsequent to exposure to a known allergen (e. g. Nickel); see Example 2. Symptoms of dermatitis and/or eczema can be observed, i.e. an allergic reaction. […] Accordingly, the compositions and methods of the invention as described herein in the various embodiments or aspects are, inter alia, effective following contact hypersensitivity to nickel. In addition, compositions and methods of the invention are effective in improving skin repair following an abrasion. Overall, treatment of skin with a solution containing propionate is effective at dampening skin diseases such as dermatitis and/or eczema and reducing redness of the skin, skin lesions, wrinkles, impurities and/or irregularities of the skin by improving the barrier function of the skin. […] The composition of the invention as described herein in the various embodiments or aspects can, inter alia, be applied topically and is relevant for the healthcare and cosmetics industry.
Allergic hypersensitivity can be induced through contact sensitization with Nickel allergen over a 12 hour time period. […] Clinical score of skin lesion can be determined by using protocols known in the art.

## CCC(=O)[O-].[Na+] [propionate, Sodium propionate]
[1]; BAL fluid cytospins 72 hours after last intranasal challenge
  allergic airway inflammation (airway eosinophil and neutrophil counts): protects against
[1]; PAS stained lung sections, small and medium airways
  mucus production in the lung (frequency of PAS stained cells): protects against
[2]; topical 5 mg sodium propionate vs vehicle (0.9% NaCl), skin inflammatory scoring 0-5 on H&E skin sections, n=5 mice per group
  allergic dermatitis skin inflammation: protects against
[2]; topical 5 mg sodium propionate vs vehicle, H&E stained skin sections from sensitized area
  epidermal thickening: protects against
[2]; topical 5 mg sodium propionate vs vehicle, TEWL 24 hours after end of third epicutaneous HDM sensitization round, n=5 mice per group
  disruption of skin barrier (transepidermal water loss, TEWL): protects against
[3]
  clinical score (symptoms of dermatitis and/or eczema): significantly reduced
